Measured values: the supplement of paper PMC4862054

Tests used:
Conditions in all cases: incubation time: 72 h
HCC1599 [1] = experiment: normalised response (% of control), CellTiter-Glo; higher = more viable cells (100 = DMSO, 0 = benzethonium chloride kill control)
Procedure: (§1)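 DSRT, 72 h incubation, CellTox Green / CellTiter-Glo readout. Signal is normalised to DMSO and benzethonium chloride controls. Value is the normalised response at the highest dose.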

MDA-MB-468 [2] = experiment: as above
Procedure: as §1

CAL-148 [3] = experiment: as above
Procedure: as §1

CAL-51 [4] = experiment: as above
Procedure: as §1

HCC1937 [5] = experiment: as above
Procedure: as §1

BT-474 [6] = experiment: as above
Procedure: as §1

MDA-MB-436 [7] = experiment: as above
Procedure: as §1

SK-BR-3 = experiment: as above
Procedure: as §1

MDA-MB-231 [8] = experiment: as above
Procedure: as §1

CAL-120 [9] = experiment: as above
Procedure: as §1

DU-4475 [10] = experiment: as above
Procedure: as §1

CAL-85-1 [11] = experiment: as above
Procedure: as §1

MDA-MB-453 [12] = experiment: as above
Procedure: as §1

BT-549 [13] = experiment: as above
Procedure: as §1

HDQ-P1 [14] = experiment: as above
Procedure: as §1

Hs578T [15] = experiment: as above
Procedure: as §1

MFM-223 [16] = experiment: as above
Procedure: as §1

HCC1143 [17] = experiment: as above
Procedure: as §1

MCF-10A [18] = experiment: as above
Procedure: as §1

HCC1599 [19] = experiment: normalised response (% of control), CellTox Green; higher = less cell death (100 = DMSO, 0 = benzethonium chloride kill control)
In short: (§2)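 The table gives the normalised signal for a single concentration in each entry. Breast cancer cell lines were seeded (20 µl suspension) into 384-well plates holding compound at 5 concentrations in 10-fold steps over a compound-specific 10,000-fold range and incubated 72 h, then read for CellTox Green fluorescence (485/520 nm) and CellTiter-Glo luminescence. Normalisation on each plate used 0.1 % DMSO (100) and a positive kill control (0).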

MDA-MB-468 [20] = experiment: as above
In short: as §2

CAL-148 [21] = experiment: as above
In short: as §2

CAL-51 [22] = experiment: as above
In short: as §2

HCC1937 [23] = experiment: as above
In short: as §2

BT-474 [24] = experiment: as above
In short: as §2

MDA-MB-436 [25] = experiment: as above
In short: as §2

MDA-MB-231 [26] = experiment: as above
In short: as §2

CAL-120 [27] = experiment: as above
In short: as §2

DU-4475 [28] = experiment: as above
In short: as §2

CAL-85-1 [29] = experiment: as above
In short: as §2

MDA-MB-453 [30] = experiment: as above
In short: as §2

BT-549 [31] = experiment: as above
In short: as §2

HDQ-P1 [32] = experiment: as above
In short: as §2

Hs578T [33] = experiment: as above
In short: as §2

MFM-223 [34] = experiment: as above
In short: as §2

HCC1143 [35] = experiment: as above
In short: as §2

MCF-10A [36] = experiment: as above
In short: as §2

Compound | normalised response (HCC1599 [1]) [%] | normalised response (MDA-MB-468 [2]) [%] | normalised response (CAL-148 [3]) [%] | normalised response (CAL-51 [4]) [%] | normalised response (HCC1937 [5]) [%] | normalised response (BT-474 [6]) [%] | normalised response (MDA-MB-436 [7]) [%] | normalised response (SK-BR-3) [%] | normalised response (MDA-MB-231 [8]) [%] | normalised response (CAL-120 [9]) [%] | normalised response (DU-4475 [10]) [%] | normalised response (CAL-85-1 [11]) [%] | normalised response (MDA-MB-453 [12]) [%] | normalised response (BT-549 [13]) [%] | normalised response (HDQ-P1 [14]) [%] | normalised response (Hs578T [15]) [%] | normalised response (MFM-223 [16]) [%] | normalised response (HCC1143 [17]) [%] | normalised response (MCF-10A [18]) [%] | normalised response (HCC1599 [19]) [%] | normalised response (MDA-MB-468 [20]) [%] | normalised response (CAL-148 [21]) [%] | normalised response (CAL-51 [22]) [%] | normalised response (HCC1937 [23]) [%] | normalised response (BT-474 [24]) [%] | normalised response (MDA-MB-436 [25]) [%] | normalised response (MDA-MB-231 [26]) [%] | normalised response (CAL-120 [27]) [%] | normalised response (DU-4475 [28]) [%] | normalised response (CAL-85-1 [29]) [%] | normalised response (MDA-MB-453 [30]) [%] | normalised response (BT-549 [31]) [%] | normalised response (HDQ-P1 [32]) [%] | normalised response (Hs578T [33]) [%] | normalised response (MFM-223 [34]) [%] | normalised response (HCC1143 [35]) [%] | normalised response (MCF-10A [36]) [%]
Cc1c(Cn2c(C)nc3c(C(=O)O)cc(N4CCOCC4)cc32)cccc1C(F)(F)F (10000 nM) | 97.5 | 69.4 | 114 | 64.9 | 92.1 | 94.5 | 86.2 | 98.3 | 96.1 | 100 | 97 | 97.3 | 94.1 | 85.4 | 100 | 97.6 | 102 | 106 | 111 | 108 | 174 | 77.8 | 90.7 | 114 | 100 | 96.6 | 110 | 106 | 102 | 78.3 | 94.8 | 101 | 112 | 120 | 82.5 | 115 | 108
CC/C(=C(\c1ccc(O)cc1)c1ccc(OCCN(C)C)cc1)c1ccccc1 [4-hydroxytamoxifen] (10000 nM) | 66.5 | 13.8 | 85 | 60.5 | 25.4 | 63 | 35 | 49.8 | 41.1 | 76.5 | 84 | 44.9 | 34.4 | 62.7 | 73.1 | 80.8 | 45.5 | 88.6 | 81.4 | 82.9 | -1140 | 73.9 | 103 | -22.6 | 14.6 | 74.7 | 7.14 | 44.5 | 92 | 34 | 46.9 | 68 | 81.4 |  | 91.1 | 68 | 75.6
CCCCC/C=C/C=C1/C(=O)C=C[C@@H]1C/C=C\CCCC(=O)O [15D-PGJ2] (800 nM) | 97 | 88.7 | 108 | 71.8 | 102 | 95.4 | 97.4 | 106 | 97.8 | 101 | 100 | 101 | 106 | 96.5 | 97.1 | 102 | 102 | 107 | 108 | 108 | 119 | 102 | 104 | 110 | 106 | 107 | 104 | 109 | 94.9 | 94.3 | 72.9 | 105 | 82.9 | 124 | 106 | 110 | 95.6
CC(=O)OC[C@H]1O[C@@H]([S-])[C@H](OC(C)=O)[C@@H](OC(C)=O)[C@@H]1OC(C)=O.CCP(CC)CC.[Au+] [Auranofin] (2500 nM) | 39.1 | 0.33 | 41.8 | 9.42 | 1.72 | 47.9 | 22.4 | 34.3 | 8.02 | 49.8 | 32.6 | 4.51 | 1.5 | 0.2 | 11.1 | 19.1 | 21.9 | 31.8 | 37.9 | 96.3 | -35.6 | 60.1 | 71 | 1.35 | 48.5 | 84.1 | 13.3 | 68.4 | 91 | -5.72 | 28.8 | -11.2 | -37 | 79.6 | 56.2 | 73.2 | 76.2
O=S(=O)(c1cccc2cnccc12)N1CCCNCC1 [Fasudil] (50000 nM) | 96.6 | 93.6 | 96.3 | 117 | 96.5 | 67.5 | 90.2 | 57 | 70.1 | 67.1 | 86.3 | 111 | 79.6 | 78.9 | 89 | 86.7 | 88.2 | 83.7 | 78.3 | 80.3 | 90.6 | 97.8 | 116 | 79.6 | 99.3 | 94.4 | 50.6 | 93.2 | 95.4 | 80.6 | 101 | 97.4 |  | 118 | 102 | 99.4 | 87.7
Cc1cccc(-c2nn3c(c2-c2ccnc4ccc(C(N)=O)cc24)CCC3)n1 [Galunisertib] (1000 nM) | 108 | 101 | 118 | 91.8 | 101 | 99.6 | 112 | 116 | 98.3 | 105 | 108 | 110 | 106 | 95.7 | 105 | 106 | 108 | 105 | 90.8 | 112 | 121 | 105 | 98.5 | 116 | 103 |  | 127 | 99.3 | 108 | 68.4 | 98.8 | 109 | 108 | 112 | 102 | 127 | 103
CS(=O)(=O)N1CCN(Cc2cc3nc(-c4cccc5[nH]ncc45)nc(N4CCOCC4)c3s2)CC1 [Pictilisib] (10000 nM) | 64.9 | 26.4 | 15.6 | 8.84 | 32.3 | 50.6 | 43 | 22.2 | 48.8 | 34.3 | 81.4 | 27.8 | 13.4 | 25.6 | 19.9 | 31.3 | 28.2 | 26 | 18.4 | 103 | 155 | 47.1 | 48.2 | 91.4 | 47.1 | 116 | 118 | 105 |  | 50.2 | 92 | 102 | 85.4 | 98.8 | 56.4 | 120 | 79.4
O=C(NC[C@H](O)CO)c1ccncc1Nc1ccc(I)cc1F [Pimasertib] (10000 nM) | 89.8 | 53.5 | 71.6 | 90.2 | 68.1 | 53 | 79.7 | 58.6 | 54 | 65.4 | 0.07 | 40.8 | 89.2 | 84.2 | 55.1 | 64.6 | 63 | 79.1 | 26.6 | 105 | 169 | 99.6 | 93.8 | 91 | 88.3 | 100 | 70.1 | 72.1 | 72.9 | 51.5 | 112 | 125 | 81.8 | 105 | 64.9 | 124 | 95.4
CC(C)N(CCCNC(=O)Nc1ccc(C(C)(C)C)cc1)C[C@H]1O[C@@H](n2cc(Br)c3c(N)ncnc32)[C@H](O)[C@@H]1O [SGC0946] (10000 nM) | 78 | 70.7 | 82.6 | 94.1 | 84.2 | 88.1 | 93.8 | 73.5 | 74.7 | 102 | 94.3 | 83.1 | 69.3 | 92.3 | 87.2 | 101 | 81.2 | 91.4 | 101 | 81.6 | 115 | 93.7 | 101 | 94 | 85.2 | 75 | 71.9 | 97.4 | 98.7 | 114 | 91.9 | 95.8 | 99.1 |  | 89.3 | 100 | 79.5
